{"source": "PubChem BioAssay AID1963597", "about": "(National Center for Advancing Translational Sciences (NCATS), 2024)", "data": [{"test_system": "human liver microsomes, metabolic stability half-life", "experiment": "NCATS Human Liver Microsomal (HLM) Stability Profiling", "details": "higher = more stable; screened at 1 µM (by protocol)", "in_short": "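Half-life derived from parent loss over 0–60 min (0, 5, 10, 15, 30, 60 min) at 37 °C. Incubations: 0.5 mg/mL microsomes, 1 µM test article, NADPH regeneration, pH 7.4 phosphate; quenched in acetonitrile containing albendazole, analysed by MS.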", "units": {"half-life": "min"}, "values": [{"smiles": "CC(=O)OCC(CCn1cnc2cnc(N)nc21)COC(C)=O", "half-life": 2.34}, {"smiles": "O=C(O)c1ccc[n+]([O-])c1", "half-life": 106}, {"smiles": "Nc1nc(NCC2CCC(CNS(=O)(=O)c3cccc4ccccc34)CC2)nc2ccccc12", "note": "(configuration not stated)", "half-life": 1.35}, {"smiles": "Nc1c(I)cc(I)c(C(=O)N(CCC(=O)O)c2ccccc2)c1I", "half-life": "> 120"}, {"smiles": "COc1ccc2c(c1)c(CC(=O)OCC(=O)O)c(C)n2C(=O)c1ccc(Cl)cc1", "half-life": "> 120"}, {"smiles": "O=C(O)c1ccccc1-c1c2cc(Br)c(=O)c(Br)c-2oc2c(Br)c(O)c(Br)cc12", "half-life": "> 120"}, {"smiles": "NC(=O)c1ccc(F)c2c1C[C@@H](N(C1CCC1)C1CCC1)CO2", "half-life": 15}, {"smiles": "O=C1COc2nccc(-c3ccccc3F)c2CN1Cc1cc(C(F)(F)F)cc(C(F)(F)F)c1", "half-life": 2.5}, {"smiles": "COc1ccc(CNc2nc(N(CCO)CCO)nc3c2ncn3C(C)C)cc1", "half-life": 35.6}, {"smiles": "CN(C)c1cc2c(cc1Sc1nc3c(N)nccc3n1CCNCC(C)(C)C)OCO2", "half-life": 3.18}, {"smiles": "CCc1nc(C(N)=O)c(Nc2ccc(N3CCC(N4CCN(C)CC4)CC3)c(OC)c2)nc1NC1CCOCC1", "half-life": "> 120"}, {"smiles": "CCOc1ccc(NC(=O)Cn2cc(C(=O)c3cccs3)c3ccccc32)cc1", "half-life": 10.5}, {"smiles": "CC1=C(C(=O)Nc2cccc(-c3ccn[nH]3)c2)C(c2ccccc2Cl)N=C(Nc2nc3ccccc3o2)N1", "note": "(configuration not stated)", "half-life": 71.5}, {"smiles": "CCC(=C(c1ccc(OCCN2CCCC2)cc1)c1ccc(OCCN2CCCC2)cc1)c1ccccc1", "half-life": "> 120"}, {"smiles": "NC(=O)c1nnn(Cc2cc(Cl)c(C(=O)c3ccc(Cl)cc3)c(Cl)c2)c1N", "half-life": "> 120"}, {"smiles": "CN(C)c1nc(Cc2ccc(NC(=O)c3ccc4ccccc4c3)cc2)nc(Cl)c1CC(=O)O", "half-life": "> 120"}, {"smiles": "Cc1[nH]c(/C=C2\\C(=O)Nc3cc(-c4ccccc4)ccc32)c(C)c1CCC(=O)O", "half-life": "> 120"}, {"smiles": "Cc1cn([C@@H]2O[C@H](CO)[C@@H](O)[C@H]2F)c(=O)[nH]c1=O", "half-life": 22.1}, {"smiles": "Nc1ccn([C@@H]2O[C@H](CO)[C@H](O)C2(F)F)c(=O)n1", "half-life": 22.3}, {"smiles": "COc1cc2c(cc1OC)CN(C(=O)[C@@H](NCc1ccncc1)C(C)(C)C)CC2", "half-life": 2.24}, {"smiles": "COCCOc1nc(N)c2[nH]c(=O)n(Cc3ccc(C(=O)O)cc3)c2n1", "half-life": "> 120"}, {"smiles": "Cc1cc(C)cc(NC(=O)Cc2ccc(OC(C)(C)C(=O)O)cc2)c1", "half-life": "> 120"}, {"smiles": "Nc1ccc2cc3ccc(N)cc3nc2c1", "half-life": 105}, {"smiles": "CCCn1cc2c(nc(NC(=O)Nc3ccc(OC)cc3)n3nc(-c4ccco4)nc23)n1", "half-life": "> 120"}, {"smiles": "O=C(O)c1ccccc1NCCc1ccccc1", "half-life": 23.8}, {"smiles": "Cc1csc(NC(=O)c2ccc(COc3cccc(Cl)c3)o2)n1", "half-life": 14.9}, {"smiles": "COc1ccc(N(C(=O)Nc2c(C)cccc2C)c2cc(Nc3ccc(N4CCN(C)CC4)cc3)ncn2)c(OC)c1", "half-life": 17.1}, {"smiles": "Cc1cc(C)cc(NC(=O)Nc2cccs2)c1", "half-life": 3.55}, {"smiles": "CCc1nn(C)c(C(=O)NCc2ccc(Oc3ccc(C)cc3)cc2)c1Cl", "half-life": 7.51}, {"smiles": "Clc1ccc(C2(c3ccc(-c4cn[nH]c4)cc3)CCNCC2)cc1", "half-life": "> 120"}, {"smiles": "COc1cc(Nc2ncc3c(n2)-c2ccc(Cl)cc2C(c2c(F)cccc2OC)=NC3)ccc1C(=O)O", "half-life": "> 120"}, {"smiles": "NC1CCC(Nc2cc(-c3cccc(NCc4cccc(F)c4)n3)c(Cl)cn2)CC1", "note": "(configuration not stated)", "half-life": "> 120"}, {"smiles": "O=C(O)CN1C(=O)c2cccc3cccc(c23)C1=O", "half-life": "> 120"}, {"smiles": "NS(=O)(=O)c1ccc(Cc2c(-c3cccc(-c4ccccc4)c3)nn(-c3nc(C(=O)O)cs3)c2CC2CC2)cc1", "half-life": 83.6}, {"smiles": "COc1ccc(CCNc2ncnc3c2c(-c2ccccc2)cn3-c2cccc(Cl)c2)cc1OC", "half-life": 3.59}, {"smiles": "Cc1ccc(Cl)c(OCC(O)CNC(C)(C)C)c1", "note": "(configuration not stated)", "half-life": 1.53}, {"smiles": "NS(=O)(=O)c1cc2c(cc1Cl)NC(CSCc1ccccc1)=NS2(=O)=O", "half-life": 29.2}, {"smiles": "O=c1[nH]c(=O)n([C@H]2C[C@H](O)[C@@H](CO)O2)cc1C(F)(F)F", "half-life": "> 120"}, {"smiles": "C(#Cc1cccc(CN2CCOCC2)c1)CCN1CCCCC1", "half-life": "> 120"}, {"smiles": "O=C(Nc1cccc(-c2nc3ccccc3o2)c1)c1ccccc1Cl", "half-life": 9.1}, {"smiles": "CCN1CCN(C(=O)C2Cn3cccc3C(=O)N2CC(C)C)CC1", "note": "(configuration not stated)", "half-life": "> 120"}, {"smiles": "CCOP(=S)(OCC)Oc1cc(Cl)c(Br)cc1Cl", "half-life": 57.6}]}]}
